The text below walks through data of patent publication US20260184693A1, “INHIBITORS OF SOLUTE CARRIER FAMILY 6A MEMBER 19 (SLC6A19) AND METHODS OF USE THEREOF” (Maze Therapeutics, Inc., priority 2022, published 2026).

This assay addresses T1, human SLC6A19 (Homo sapiens, UniProt Q695T7).
T1 construct: expressed in transfected cells
T1 sequence (Q695T7 1-634): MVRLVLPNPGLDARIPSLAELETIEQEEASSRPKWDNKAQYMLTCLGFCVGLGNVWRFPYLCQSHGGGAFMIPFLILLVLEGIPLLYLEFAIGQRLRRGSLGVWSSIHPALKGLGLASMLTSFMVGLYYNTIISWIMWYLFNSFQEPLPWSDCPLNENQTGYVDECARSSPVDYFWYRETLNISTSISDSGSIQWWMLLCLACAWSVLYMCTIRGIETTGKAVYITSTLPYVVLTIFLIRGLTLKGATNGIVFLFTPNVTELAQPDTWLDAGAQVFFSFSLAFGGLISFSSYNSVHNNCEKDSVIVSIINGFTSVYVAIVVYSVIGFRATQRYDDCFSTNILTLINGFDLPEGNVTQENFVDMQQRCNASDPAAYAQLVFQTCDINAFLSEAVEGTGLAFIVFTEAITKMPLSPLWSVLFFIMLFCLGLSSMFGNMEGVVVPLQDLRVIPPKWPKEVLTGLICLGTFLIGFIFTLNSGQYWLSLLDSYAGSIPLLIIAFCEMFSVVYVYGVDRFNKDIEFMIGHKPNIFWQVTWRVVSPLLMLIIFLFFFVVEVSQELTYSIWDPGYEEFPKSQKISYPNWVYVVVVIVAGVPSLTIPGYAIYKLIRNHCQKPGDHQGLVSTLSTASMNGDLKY
T1 sequence (Q9HBJ8 15-222 partner): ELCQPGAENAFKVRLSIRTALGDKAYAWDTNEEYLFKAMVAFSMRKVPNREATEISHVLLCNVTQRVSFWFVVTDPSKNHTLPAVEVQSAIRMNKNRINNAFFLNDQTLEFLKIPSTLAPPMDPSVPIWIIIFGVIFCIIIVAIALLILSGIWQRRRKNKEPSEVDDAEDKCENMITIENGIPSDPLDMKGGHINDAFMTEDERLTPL
As to the kind of experiment: Example B2: 13C6,15N-isoleucine uptake, RapidFire mass spectrometry, in CHO cells with doxycycline-inducible expression of human SLC6A19 and TMEM27. Type of assay: cell-based. The settings on record: read-out: SLC6A19_RapidFire Uptake Assay IC50. On the procedure:
Assay ready vials of CHO cells with doxycycline inducible expression of human SLC6A19 and TMEM27 were thawed, plated in T175 flasks containing DMEM/F12 media, 10% FBS, 100 Penicillin-Streptomycin, 1× UltraGlutamate, 1 mM Sodium Pyruvate, Sodium Bicarbonate (7.5 mL of 7.5% solution in 500 mL media final), […] Blasticidin, 150 µg/mL Hygromycin B Gold, and 500 µg/mL G418, and incubated (humidified, 37° C. with […]) for 48 hours. Media was then removed, flasks were washed with 20 mL of DPBS, and 5 mL of TryμLE™ Express was added to each flask to initiate cell dissociation. After 5 minutes, 10 mL of cell culture media was added to each flask and mixed. The cell suspension was collected and centrifuged for 5 minutes at 200×g. The supernatant was removed, and the pellet was resuspended in 10 mL of cell culture media. Resuspended cells were counted using a Vi-Cell. 30 μL/well (20,000 cells/well) of cell suspension was added to Poly-D-Lysine 384-well black/clear plates. Plates were incubated (humidified, 37° C. with 5% CO2) for 24 hours. To induce expression of human SLC6A19 and TMEM27, 10 μL of assay culture media containing 4 μg/mL doxycycline was added to each well. Assay plates were then incubated (humidified, 37° C. with 5% CO2) overnight. After incubation, the media was removed, and wells were washed 3 times with 40 μL of warmed DPBS. […] All compounds were plated in a duplicate 10-point dilution series that consisted of 2-fold dilutions. The plates were incubated (humidified, 37° C. with 5% CO2) with compound for 20 minutes. Afterwards, 20 μL/well of 2 mM 13C6,15N-1-isoleucine was added to each well and plates were incubated again (humidified, 37° C. with 5% CO2) for another 20 minutes. Assay buffer was then removed, and plates were washed. 70 μL/well of stop solution (75% acetonitrile, 25% HPLC grade water, 250 nM 1-leucine-1-13 C (RapidFire standard)) was added to each well. The plates were sealed and then placed in a −20° C. freezer for 20 minutes. The plates were thawed at room temperature for 20 minutes and then centrifuge for 20 minutes at 3000 rpm. Using an ABSciex API4000 mass spectrometer, processed samples were loaded onto the graphitic carbon SPE-column. The time for aspiration, load/wash, elution and re-equilibration time was 600, 1500, 3000 and 500 milliseconds, respectively. Peak areas were calculated using RapidFire Integrator software.
For the molecule `CN(C(=O)NCc1cc2cc(Cl)ccc2[nH]1)[C@@H]1CCCN(C(=O)c2cnnn2C)C1` [Compound 26, (R)-3-((5-chloro-1H-indol-2-yl)methyl)-1-methyl-1-(1-(1-methyl-1H-1,2,3-triazole-5-carbonyl)piperidin-3-yl)urea], the IC50 (in general, the concentration that gives 50% inhibition) is 5.26 µM.
The value for `Cc1ncoc1C(=O)N1CCC[C@@H](N(C)C(=O)NCc2cc3cc(Cl)ccc3[nH]2)C1` [Compound 27, (R)-3-((5-chloro-1H-indol-2-yl)methyl)-1-methyl-1-(1-(4-methyloxazole-5-carbonyl)piperidin-3-yl)urea] was 0.821 µM; that for `CN(C(=O)NCc1cc2cc(Cl)ccc2[nH]1)[C@@H]1CCCN(C(=O)c2ncnn2C)C1` [Compound 28, (R)-3-((5-chloro-1H-indol-2-yl)methyl)-1-methyl-1-(1-(1-methyl-1H-1,2,4-triazole-5-carbonyl)piperidin-3-yl)urea] was greater than 23.4 µM; that for `CN(C(=O)NCc1cc2cc(Cl)ccc2[nH]1)[C@@H]1CCCN(C(=O)CNC(N)=O)C1` [Compound 29, (R)-1-(1-(carbamoylglycyl)piperidin-3-yl)-3-((5-chloro-1H-indol-2-yl)methyl)-1-methylurea] was 2.49 µM.
The value for `CN(C(=O)NCc1cc2cc(Cl)ccc2[nH]1)[C@@H]1CCCN(C(=O)Cn2nccn2)C1` [Compound 30, (R)-1-(1-(2-(2H-1,2,3-triazol-2-yl)acetyl)piperidin-3-yl)-3-((5-chloro-1H-indol-2-yl)methyl)-1-methylurea] was 3.7 µM; that for `Cc1cc(C(=O)N2CCC[C@@H](N(C)C(=O)NCc3cc4cc(Cl)ccc4[nH]3)C2)on1` [Compound 31, (R)-3-((5-chloro-1H-indol-2-yl)methyl)-1-methyl-1-(1-(3-methylisoxazole-5-carbonyl)piperidin-3-yl)urea] was 1.49 µM.
In the case of `CN(C(=O)NCc1cc2cc(Cl)ccc2[nH]1)[C@@H]1CCCN(C(=O)CS(C)(=O)=O)C1` [Compound 32, (R)-3-((5-chloro-1H-indol-2-yl)methyl)-1-methyl-1-(1-(2-(methylsulfonyl)acetyl)piperidin-3-yl)urea] it was 8.61 µM; in that of `CC(C)C(=O)N1CCC[C@@H](N(C)C(=O)NCc2cc3cc(Cl)ccc3[nH]2)C1` [Compound 33, (R)-3-((5-chloro-1H-indol-2-yl)methyl)-1-(1-isobutyrylpiperidin-3-yl)-1-methylurea], 0.405 µM; in that of `CN(C(=O)NCc1cc2cc(Cl)ccc2[nH]1)[C@@H]1CCCN(C(=O)c2ccncc2)C1` [Compound 34, (R)-3-((5-chloro-1H-indol-2-yl)methyl)-1-(1-isonicotinoylpiperidin-3-yl)-1-methylurea], 1.4 µM.
Regarding `Cc1cnc(C(=O)N2CCC[C@@H](N(C)C(=O)NCc3cc4cc(Cl)ccc4[nH]3)C2)s1` [Compound 35, (R)-3-((5-chloro-1H-indol-2-yl)methyl)-1-methyl-1-(1-(5-methylthiazole-2-carbonyl)piperidin-3-yl)urea], the IC50 is 0.556 µM.
Consider `Cc1cnoc1C(=O)N1CCC[C@@H](N(C)C(=O)NCc2cc3cc(Cl)ccc3[nH]2)C1` [Compound 36, (R)-3-((5-chloro-1H-indol-2-yl)methyl)-1-methyl-1-(1-(4-methylisoxazole-5-carbonyl)piperidin-3-yl)urea], for which the IC50 was determined as 1.57 µM.
For `CN(C(=O)NCc1cc2cc(Cl)ccc2[nH]1)[C@@H]1CCCN(C(=O)c2ncc[nH]c2=O)C1` [Compound 37, (R)-3-((5-chloro-1H-indol-2-yl)methyl)-1-methyl-1-(1-(3-oxo-3,4-dihydropyrazine-2-carbonyl)piperidin-3-yl)urea], the half-maximal inhibitory concentration (IC50) turned out to be 19.6 µM.
Turning to `Cc1ncc(C(=O)N2CCC[C@@H](N(C)C(=O)NCc3cc4cc(Cl)ccc4[nH]3)C2)o1` [Compound 38, (R)-3-((5-chloro-1H-indol-2-yl)methyl)-1-methyl-1-(1-(2-methyloxazole-5-carbonyl)piperidin-3-yl)urea], the IC50 was 0.428 µM.
The value for `CN(C(=O)NCc1cc2cc(Cl)ccc2[nH]1)[C@@H]1CCCN(C(=O)c2ccn(C(F)F)n2)C1` [Compound 39, (R)-3-((5-chloro-1H-indol-2-yl)methyl)-1-(1-(1-(difluoromethyl)-1H-pyrazole-3-carbonyl)piperidin-3-yl)-1-methylurea] was 0.231 µM.
In the case of `CCC(O)C(=O)N1CCC[C@@H](N(C)C(=O)NCc2cc3cc(Cl)ccc3[nH]2)C1` (stereo partly drawn) [Compound 40, 3-((5-chloro-1H-indol-2-yl)methyl)-1-((3R)-1-(2-hydroxybutanoyl)piperidin-3-yl)-1-methylurea] it was 5.25 µM; in that of `Cc1cc(C(=O)N2CCC[C@@H](N(C)C(=O)NCc3cc4cc(Cl)ccc4[nH]3)C2)[nH]n1` [Compound 41, (R)-3-((5-chloro-1H-indol-2-yl)methyl)-1-methyl-1-(1-(3-methyl-1H-pyrazole-5-carbonyl)piperidin-3-yl)urea], 0.854 µM.
On to `CN(C(=O)NCc1cc2cc(Cl)ccc2[nH]1)[C@@H]1CCCN(C(=O)c2cccc(F)c2F)C1` [Compound 42, (R)-3-((5-chloro-1H-indol-2-yl)methyl)-1-(1-(2,3-difluorobenzoyl)piperidin-3-yl)-1-methylurea], for which the IC50 amounted to 1.24 µM.
The value for `COC(C)C(=O)N1CCC[C@@H](N(C)C(=O)NCc2cc3cc(Cl)ccc3[nH]2)C1` (stereo partly drawn) [Compound 43, 3-((5-chloro-1H-indol-2-yl)methyl)-1-((3R)-1-(2-methoxypropanoyl)piperidin-3-yl)-1-methylurea] was 6.25 µM.
In the case of `CN(C(=O)NCc1cc2cc(Cl)ccc2[nH]1)[C@@H]1CCCN(C(=O)C2CC(F)(F)C2)C1` [Compound 44, (R)-3-((5-chloro-1H-indol-2-yl)methyl)-1-(1-(3,3-difluorocyclobutane-1-carbonyl)piperidin-3-yl)-1-methylurea] it was 0.35 µM; in that of `CN(C(=O)NCc1cc2cc(Cl)ccc2[nH]1)[C@@H]1CCCN(C(=O)C2(C)CC2)C1` [Compound 45, (R)-3-((5-chloro-1H-indol-2-yl)methyl)-1-methyl-1-(1-(1-methylcyclopropane-1-carbonyl)piperidin-3-yl)urea], 1.55 µM; in that of `CN(C(=O)NCc1cc2cc(Cl)ccc2[nH]1)[C@@H]1CCCN(C(=O)CCC(N)=O)C1` [Compound 46, (R)-4-(3-(3-((5-chloro-1H-indol-2-yl)methyl)-1-methylureido)piperidin-1-yl)-4-oxobutanamide], 1.24 µM.
The value for `CN(C(=O)NCc1cc2cc(Cl)ccc2[nH]1)[C@@H]1CCCN(C(=O)c2cc(CO)on2)C1` [Compound 47, (R)-3-((5-chloro-1H-indol-2-yl)methyl)-1-(1-(5-(hydroxymethyl)isoxazole-3-carbonyl)piperidin-3-yl)-1-methylurea] was 2.46 µM.
As for `CN(C(=O)NCc1cc2cc(Cl)ccc2[nH]1)[C@@H]1CCCN(C(=O)C2CCC2)C1` [Compound 48, (R)-3-((5-chloro-1H-indol-2-yl)methyl)-1-(1-(cyclobutanecarbonyl)piperidin-3-yl)-1-methylurea], the IC50 turned out to be 0.0442 µM.
The value for `CN(C(=O)NCc1cc2cc(Cl)ccc2[nH]1)[C@@H]1CCCN(C(=O)CC2CC2)C1` [Compound 49, (R)-3-((5-chloro-1H-indol-2-yl)methyl)-1-(1-(2-cyclopropylacetyl)piperidin-3-yl)-1-methylurea] was 0.371 µM.
